Reference: patent publication US12521395B2, “Gem-disubstituted heterocyclic compounds and their use as IDH inhibitors” (NERVIANO MEDICAL SCIENCES S.R.L., priority 2019, dated 2026)

Tests used:
IDH1 wild type enzyme = IDH1 wild type enzyme (Homo sapiens, UniProt O75874); experiment: Enzymatic assay for IDH1 wild-type (NADPH forming assay); format: biochemical; conditions: 0.016 nM IDH1WT, 15 min preincubation
Procedure: IDH1WT enzymatic activity converting isocitric acid to alpha-ketoglutarate is measured using a NADPH forming assay. In the assay the forming cofactor is measured in continuous with the addition of a catalytic excess of diaphorase and resazurin, to generate a fluorescent signal in proportion to the amount of NADPH forming.
Compounds were preincubated with the enzyme, then the reaction was started by the addition of NADP+, isocitrate, diaphorase and a corresponding substrate, resazurin. Diaphorase reduces resazurin to the highly fluorescent resorufin with the concomitant oxidation of NADPH to NADP. Specifically, 0.2 μL of test compound, previously serially diluted 1 to 3, >10 experimental points from 1 mM in DMSO, was added to 0.016 nM IDH1WT enzyme in 10 μL of Assay Buffer (150 mM NaCl, 50 mM Tris-HCl pH 7.6, 10 mM MgCl2, 0.001% Triton X-100, 4 mM β-mercaptoethanol); the mixture is incubated for 15 minutes at room temperature. The reaction is started with the addition of 10 μL of Substrate Mix (400 μM NADP^+, 40 μM iso-citrate, 5 ugr/mL Diaphorase and 7 μM resazurin in Assay Buffer), the mixture is incubated at room temperature and the reaction is reading on a ViewLux as platereader at Ex544/Em590 in continuous.

IDH1^R132H = IDH1^R132H (Homo sapiens, UniProt O75874, R132H); experiment: NADPH depletion assay (diaphorase/resazurin), IDH1 R132H; format: biochemical; conditions: 15 min preincubation, 60 min reaction, room temperature
Chain of IDH1^R132H (O75874 whole entry R132H, canonical isoform): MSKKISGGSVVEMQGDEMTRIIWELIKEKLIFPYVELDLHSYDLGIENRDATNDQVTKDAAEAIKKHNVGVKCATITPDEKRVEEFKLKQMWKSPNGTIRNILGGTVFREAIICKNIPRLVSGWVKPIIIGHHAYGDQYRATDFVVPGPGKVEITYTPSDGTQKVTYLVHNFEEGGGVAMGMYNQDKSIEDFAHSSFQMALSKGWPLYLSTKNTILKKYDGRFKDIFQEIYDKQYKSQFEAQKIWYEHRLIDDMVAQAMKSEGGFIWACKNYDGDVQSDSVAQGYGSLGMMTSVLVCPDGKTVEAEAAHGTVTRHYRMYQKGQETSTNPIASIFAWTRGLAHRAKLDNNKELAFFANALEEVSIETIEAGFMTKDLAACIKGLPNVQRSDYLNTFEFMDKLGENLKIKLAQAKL
Procedure: (§1) IDH mutated enzyme activity converting alpha-ketoglutarate to 2-hydroxyglutaric acid is measured using a NADPH depletion assay. In the assay the remaining cofactor is measured at the end of the reaction with the addition of a catalytic excess of diaphorase and resazurin, to generate a fluorescent signal in proportion to the amount of NADPH remaining. IDH1 WT enzyme as well as mutated isoforms IDH1^R132H, IDH1^R132C, and IDH2^R172K enzymes are commercially available proteins (see e.g. Sino Biological, Abcam, Active Motif or Creative BioMart).
(§2) IDH1^R132H homodimer enzyme are diluted to 8 nM, in 10 μL of Assay Buffer (150 mM NaCl, 50 mM Tris-HCl pH 7.6, 10 mM MgCl2, 0.001% Triton X-100, 4 mM β-mercaptoethanol); 0.2 μL of test compound, previously serially diluted 1 to 3, >10 experimental points from 1 mM in DMSO, is added and the mixture is incubated for 15 minutes at room temperature. The reaction is started with the addition of 10 μL of Substrate Mix (12 μM NADPH, 3.4 mM alpha-ketoglutarate in Assay Buffer) and the mixture is incubated for 60 minutes at room temperature. The reaction is terminated with the addition of 5 μl of Detection Buffer (100 μg/mL diaphorase, 30 μM resazurin, in IX Assay Buffer), and is incubated for 15 minutes before reading on a ViewLux as platereader at Ex544/Em590.

IDH2^R172K = target: T1, IDH2^R172K (Homo sapiens, UniProt P48735, R172K); experiment: NADPH depletion assay (diaphorase/resazurin), IDH2 R172K; format: biochemical; conditions: IDH2^R172K 16 nM, alpha-ketoglutarate 0.55 mM
T1 sequence (P48735 40-452 R172K): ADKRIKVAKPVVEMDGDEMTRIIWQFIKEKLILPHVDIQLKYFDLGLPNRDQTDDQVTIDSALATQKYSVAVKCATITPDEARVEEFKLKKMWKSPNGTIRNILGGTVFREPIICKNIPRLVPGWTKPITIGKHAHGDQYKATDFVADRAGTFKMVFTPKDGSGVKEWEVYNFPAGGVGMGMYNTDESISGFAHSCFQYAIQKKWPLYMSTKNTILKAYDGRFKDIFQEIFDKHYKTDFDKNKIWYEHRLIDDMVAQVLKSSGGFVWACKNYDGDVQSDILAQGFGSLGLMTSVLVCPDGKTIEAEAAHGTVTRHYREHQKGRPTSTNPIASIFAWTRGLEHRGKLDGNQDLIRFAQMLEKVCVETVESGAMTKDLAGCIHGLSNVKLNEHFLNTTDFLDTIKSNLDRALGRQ
Procedure: as §1, §2
Compounds are assayed for their activity against IDH2^R172K following the same assay as above with the following modifications: IDH2^R172K and alpha-ketoglutarate final concentrations in the Assay Buffer is 16 nM and 0.55 mM, respectively.

IDH1^R132C = IDH1^R132C (Homo sapiens, UniProt O75874, R132C); experiment: NADPH depletion assay (diaphorase/resazurin), IDH1 R132C; format: biochemical; conditions: IDH1^R132C 2 nM, alpha-ketoglutarate 0.14 mM; read-out: IDH1^R132C IC50
Chain of IDH1^R132C (O75874 whole entry R132C): as the sequence (O75874 whole entry R132H, canonical isoform) above, with H132C counted along it
Procedure: as §1, §2
Compounds are assayed for their activity against IDH1^R132C following the same assay as above with the following modifications: IDH1^R132C and alpha-ketoglutarate final concentrations in the Assay Buffer is 2 nM and 0.14 mM, respectively.

[1] = tested on: cell lines HT-1080 (IDH1^R132C); experiment: Cellular assay: inhibition of 2HG production, LC-MS/MS; format: cell-based; conditions: Homo sapiens, 72 hr incubation, 2-HG in cell culture media, read-out: HT1080 2-HG IC50
Procedure: Cell lines HT-1080 (commercially available) are maintained in E-MEM 10% FCS and incubated at 37° C. in a humidified 5% CO2 atmosphere.
Cells are seeded into 96 well black flat bottom plates at a density of 500 cells/well in 100 μL complete medium. After 24 hr the medium is replaced with 200 μL of fresh medium and compounds (dissolved into DMSO) are administrated to the cells using D300E Digital Dispenser (Tecan).
After 72 hr of incubation 100 μL from each well are collected and used for 2HG (R(−)-2-hydroxyglutarate) quantification. Levels of 2-HG in cell culture media are determined by LC-MS/MS. Cell supernatants (100 μL/well) are treated with 1 M aqueous trichloroacetic acid containing 130 μM of the internal standard 2-HG-d3 (20 μL/well) in a 96-well plate. The plates are sealed, mildly vortexed for 60 minutes, centrifuged at 4,000 RPM for 15 minutes, placed in a refrigerated autosampler taking care not to shake them, and aliquots of the upper part of the samples are directly injected in the chromatographic system. Calibration standards are obtained by ten folds dilution of aqueous 2-HG stock solutions with blank cell culture medium and denatured exactly in the same way as described above for samples. Samples and standards are assayed for 2-HG by reversed phase chromatography on a C18 column eluted with aqueous 0.15% formic acid and briefly washed with 90% methanol at the end of the run. 2-HG is determined by negative ion electrospray ionization with the internal standard method on a triple quadrupole mass spectrometer monitoring the MRM transitions 147>129 (2-HG) and 150>132 (2-HG-d3).
2-HG inhibition was calculated by comparing treated versus control data using Assay Explore (Symyx) software, with IC50 determined using a sigmoidal fitting algorithm.

Chain of IDH1 wild type enzyme (O75874 whole entry): as the sequence (O75874 whole entry R132H, canonical isoform) above, with H132R counted along it

Compound | IC50 (IDH1 wild type enzyme) [nM] | IC50 (IDH1^R132H) [nM] | IC50 (IDH2^R172K) [nM] | IC50 (IDH1^R132C) [nM] | IC50 [1] [nM]
C=CC(=O)N1CCN(C2(c3ccc([C@H](C)Nc4ncc5ccc(=O)n(C(C)C)c5n4)cc3)CCOCC2)CC1 [cpd 1, 2-{[(1S)-1-{4-[4-(4-acryloylpiperazin-1-yl)tetrahydro-2H-pyran-4-yl]phenyl}ethyl]amino}-8-(propan-2-yl)pyrido[2,3-d]pyrimidin-7(8H)-one] | 133 | 3.5 | 111 | 3.3 | 2.4
C=CC(=O)N1CCN(C(CC)(CC)c2ccc([C@H](C)Nc3ncc4ccc(=O)n(C(C)C)c4n3)cc2)CC1 [cpd 4, 2-{[(1S)-1-{4-[3-(4-acryloylpiperazin-1-yl)pentan-3-yl]phenyl}ethyl]amino}-8-(propan-2-yl)pyrido[2,3-d]pyrimidin-7(8H)-one] | 313 | 3.8 | 22.8 | 1.7 | 0.6
C=CC(=O)N1CCN(C2(c3ccc([C@H](C)Nc4cc5c(ccc(=O)n5C(C)C)cn4)cc3)CCOCC2)CC1 [cpd 11, 7-{[(1S)-1-{4-[4-(4-acryloylpiperazin-1-yl)tetrahydro-2H-pyran-4-yl]phenyl}ethyl]amino}-1-(propan-2-yl)-1,6-naphthyridin-2(1H)-one] | 364 | 6.4 | 291 | 4.8 | 2.6
C=CC(=O)N1CCN(C2(c3ccc([C@H](C)Nc4ncc5ccc(=O)n(C(C)C)c5n4)cc3)CCC(F)(F)CC2)CC1 [cpd 26, 2-{[(1S)-1-{4-[1-(4-acryloylpiperazin-1-yl)-4,4-difluorocyclohexyl]phenyl}ethyl]amino}-8-(propan-2-yl)pyrido[2,3-d]pyrimidin-7(8H)-one] | 126 | 3 | 126 | 2 | 0.5
C=CC(=O)N1CCN(C2(c3ccc(C(C)(C)Nc4ncc5ccc(=O)n(C(C)C)c5n4)cc3)CCOCC2)CC1 [cpd 40, 2-[(2-{4-[4-(4-acryloylpiperazin-1-yl)tetrahydro-2H-pyran-4-yl]phenyl}propan-2-yl)amino]-8-(propan-2-yl)pyrido[2,3-d]pyrimidin-7(8H)-one] | – | – | – | 18 | 14.8
C=CC(=O)N1CCN([C@@](C)(CN2CCOCC2)c2ccc([C@H](C)Nc3ncc4ccc(=O)n(C(C)C)c4n3)cc2)CC1 [cpd 43, 2-{[(1S)-1-{4-[(2R)-2-(4-acryloylpiperazin-1-yl)-1-(morpholin-4-yl)propan-2-yl]phenyl}ethyl]amino}-8-(propan-2-yl) pyrido[2,3-d]pyrimidin-7(8H)-one] | – | – | – | 15 | 3
C=CC(=O)N1CCN(C2(c3ccc([C@H](C)Nc4cc5c(cn4)COC(=O)N5CC)cc3)CCOCC2)CC1 [cpd 44, 7-{[(1S)-1-{4-[4-(4-acryloylpiperazin-1-yl)tetrahydro-2H-pyran-4-yl]phenyl}ethyl]amino}-1-ethyl-1,4-dihydro-2H-pyrido[4,3-d][1,3]oxazin-2-one] | – | – | – | 9 | 4
C=CC(=O)N1CCN(C2(c3ccc([C@H](C)Nc4cc5c(ccc(=O)n5C(C)C)cn4)cc3)CCC(F)(F)CC2)CC1 [cpd 47, 7-{[(1S)-1-{4-[1-(4-acryloylpiperazin-1-yl)-4,4-difluorocyclohexyl]phenyl}ethyl]amino}-1-(propan-2-yl)-1,6-naphthyridin-2(1H)-one] | 97.4 | 2 | 97 | 1 | 0.6
C=CC(=O)N1CC(N(C)C2(c3ccc([C@H](C)Nc4cc5c(ccc(=O)n5C(C)C)cn4)cc3)CCOCC2)C1 [cpd 48, 7-{[(1S)-1-(4-{4-[(1-acryloylazetidin-3-yl)(methyl)amino]tetrahydro-2H-pyran-4-yl}phenyl)ethyl]amino}-1-(propan-2-yl)-1,6-naphthyridin-2(1H)-one] | – | – | – | 47 | 65
C=CC(=O)N1CCN(C2(c3ccc(C4(Nc5ncc6ccc(=O)n(C(C)C)c6n5)CC4)cc3)CCCC2)CC1 [cpd 49, 2-[(1-{4-[1-(4-acryloylpiperazin-1-yl)cyclopentyl]phenyl}cyclopropyl)amino]-8-(propan-2-yl)pyrido[2,3-d]pyrimidin-7(8H)-one] | – | – | – | 17 | 3
C=CC(=O)N1CC(N(C)C2(c3ccc([C@H](C)Nc4ncc5ccc(=O)n(C(C)C)c5n4)cc3)CCC(F)(F)CC2)C1 [cpd 50, 2-{[(1S)-1-(4-{1-[(1-acryloylazetidin-3-yl)(methyl)amino]-4,4-difluorocyclohexyl}phenyl)ethyl]amino}-8-(propan-2-yl) pyrido[2,3-d]pyrimidin-7(8H)-one] | 516 | 20 | 516 | 5 | 10
[2H]C([2H])=C([2H])C(=O)N1CCN(C2(c3ccc([C@H](C)Nc4ncc5ccc(=O)n(C(C)C)c5n4)cc3)CCOCC2)CC1 [cpd 51, 8-(propan-2-yl)-2-({(1S)-1-[4-(4-{4-[(^2H3)prop-2-enoyl]piperazin-1-yl}tetrahydro-2H-pyran-4-yl)phenyl]ethyl}amino) pyrido[2,3-d]pyrimidin-7(8H)-one] | – | – | – | 7 | 2.4
CC(C)n1c(=O)ccc2cnc(N[C@@H](C)c3ccc(C4(N(C)C5CN(C(=O)C(F)Cl)C5)CCC(F)(F)CC4)cc3)nc21 (stereo partly drawn) [cpd 53, 2-{[(1S)-1-(4-{1-[{1-[chloro(fluoro)acetyl]azetidin-3-yl}(methyl)amino]-4,4-difluorocyclohexyl}phenyl)ethyl]amino}-8-(propan-2-yl)pyrido[2,3-d]pyrimidin-7(8H)-one] | – | – | – | 28 | 40
